The values below come from ChEMBL document CHEMBL3259558, “Identification of amides derived from 1H-pyrazolo[3,4-b]pyridine-5-carboxylic acid as potent inhibitors of human nicotinamide phosphoribosyltransferase (NAMPT)” (Bioorg Med Chem Lett, 2013).

Molecules are shown by their SMILES. Active and inactive are the calls of the source. No cut-off for these calls is given here. Bounds are passed on as bounds.

T1 sequence (Q99KQ4 whole entry): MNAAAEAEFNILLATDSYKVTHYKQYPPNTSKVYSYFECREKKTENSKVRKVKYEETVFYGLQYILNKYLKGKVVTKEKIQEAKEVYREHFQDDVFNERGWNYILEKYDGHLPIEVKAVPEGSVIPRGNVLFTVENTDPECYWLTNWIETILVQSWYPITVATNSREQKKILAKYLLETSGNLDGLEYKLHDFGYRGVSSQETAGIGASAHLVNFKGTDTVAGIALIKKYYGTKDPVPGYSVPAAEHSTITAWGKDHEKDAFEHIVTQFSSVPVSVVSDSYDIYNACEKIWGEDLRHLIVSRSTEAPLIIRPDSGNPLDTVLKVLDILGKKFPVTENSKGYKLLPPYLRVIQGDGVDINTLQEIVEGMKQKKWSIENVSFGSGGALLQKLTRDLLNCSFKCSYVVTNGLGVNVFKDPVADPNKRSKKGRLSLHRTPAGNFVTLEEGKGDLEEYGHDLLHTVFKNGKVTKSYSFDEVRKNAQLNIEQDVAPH

The subject of one data set is PC-3. Description: Cellular uptake in human PC3 cells at 200 nM. It is filed as ADME, cell-based. The settings on record: pc-3, 0.2 µM.
With `O=C(NCc1ccc(S(=O)(=O)c2cc(F)cc(F)c2)cc1)c1ccc2nccn2c1`, the Drug uptake is recorded as 9 nM.

The next data set has as its target T1, Nicotinamide phosphoribosyltransferase (Mus musculus, UniProt Q99KQ4). Kind of data set: Inhibition of mouse NAMPT after 30 mins by mass spectrometry-based analysis.
Conditions: not given
The compound `O=C(NCc1ccc(S(=O)(=O)c2cc(F)cc(F)c2)cc1)c1ccc2nccn2c1` returned a concentration for half-maximal inhibition (IC50) of 24 nM.

Tested on in another data set: not listed separately
Kind of data set: Dissociation constant, pKa of the compound. Type of data set: physicochemical.
Conditions: not given
Compound `O=C(NCc1ccc(S(=O)(=O)c2cc(F)cc(F)c2)cc1)c1ccc2nccn2c1` had a pKa of 5.3.

Another data set concerns PC-3. Kind of data set: Cellular uptake in human PC3 cells at 1000 nM. The conditions noted are these: pc-3, 1 µM. Type of data set: ADME, cell-based.
In turn, `O=C(NCc1ccc(S(=O)(=O)c2cc(F)cc(F)c2)cc1)c1ccc2nccn2c1` gave a Drug uptake of 30 nM.

Tested on in a further data set: not listed separately
Kind of data set: Drug uptake in Sprague-Dawley rat retina at 30 mg/kg, po qd for 2 days measured 6.5 hrs after last dose in presence of nicotinic acid. The settings on record: read-out: Drug uptake. The arrangement: dose 30 mg/kg, route oral. Type of data set: ADME, organism-based.
Take `O=C(NCc1ccc(S(=O)(=O)c2cc(F)cc(F)c2)cc1)c1ccc2nccn2c1`: the concentration at 6.5 h worked out at 1300 nM.

Tested on in another data set: not listed separately
Description: Antiproliferative activity against mouse B16F10 cells assessed as cell viability after 96 hrs by CyQuant staining-based assay. It is filed as functional. The settings on record: B16-F10, 96 h.
Regarding `O=C(NCc1ccc(S(=O)(=O)c2cc(F)cc(F)c2)cc1)c1ccc2nccn2c1`, the IC50 was 71 nM.

Tested on in the next data set: not listed separately
Description: Inhibition of C-terminal His-6-tagged dog NAMPT expressed in Escherichia coli (DE3)-RIL cells after 30 mins by mass spectrometry-based analysis. The arrangement: species or system Canis lupus familiaris.
Conditions: not given
As for `O=C(NCc1ccc(S(=O)(=O)c2cc(F)cc(F)c2)cc1)c1ccc2nccn2c1`, the midpoint of inhibition, the IC50, lay at 7 nM.

In the next data set the target is Nicotinamide phosphoribosyltransferase (Homo sapiens, UniProt P43490). Kind of data set: Inhibition of C-terminal His-6-tagged full length human NAMPT expressed in Escherichia coli (DE3) cells after 30 mins by mass spectrometry-based analysis.
Sequence of Nicotinamide phosphoribosyltransferase (Homo sapiens, UniProt P43490) (P43490 whole entry): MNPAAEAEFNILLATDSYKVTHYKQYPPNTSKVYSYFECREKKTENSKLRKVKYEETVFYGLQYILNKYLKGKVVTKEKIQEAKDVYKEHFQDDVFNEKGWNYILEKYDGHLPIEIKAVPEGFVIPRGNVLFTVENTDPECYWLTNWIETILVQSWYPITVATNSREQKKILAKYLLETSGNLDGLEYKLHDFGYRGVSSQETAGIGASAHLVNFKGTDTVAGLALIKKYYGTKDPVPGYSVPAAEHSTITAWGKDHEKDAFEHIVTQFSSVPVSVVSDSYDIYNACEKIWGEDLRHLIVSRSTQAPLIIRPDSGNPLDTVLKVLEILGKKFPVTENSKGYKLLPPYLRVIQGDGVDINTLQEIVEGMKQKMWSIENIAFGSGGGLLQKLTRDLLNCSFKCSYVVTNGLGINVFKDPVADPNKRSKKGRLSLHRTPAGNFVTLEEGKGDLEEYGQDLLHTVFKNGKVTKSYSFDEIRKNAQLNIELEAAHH
Conditions: not given
Take `NC1CCN(S(=O)(=O)c2ccc(CNC(=O)c3cnc4[nH]ncc4c3)cc2)CC1`: it took 390 nM to reach half-maximal inhibition (IC50).
Compound `O=C(NCc1ccc(S(=O)(=O)c2ccc(N3CCOCC3)nc2)cc1)c1cnc2[nH]ncc2c1` displayed a half-maximal inhibitory concentration (IC50) of 4.5 nM.
As to `CN(C)c1ccc(S(=O)(=O)c2ccc(CNC(=O)c3cnc4[nH]ncc4c3)cc2)cn1`, the IC50 came to 12 nM.
On the same count and under the same terms, under `O=C(NCc1ccc(S(=O)(=O)c2ccccc2)cc1)c1cnc2[nH]ncc2c1` stands 54 nM; under `CC(C)n1cc(S(=O)(=O)c2ccc(CNC(=O)c3cnc4[nH]ncc4c3)cc2)cn1`, 99 nM; under `O=C(NCc1ccc(S(=O)(=O)N2CCOCC2)cc1)c1cnc2[nH]ncc2c1`, 370 nM.

Tested on in a further data set: not listed separately
Kind of data set: Antiproliferative activity against human MIAPaCa2 cells assessed as cell viability after 96 hrs by CyQuant staining-based assay. It is filed as functional. The settings on record: MIA PaCa-2, 96 h.
`O=C(NCc1ccc(S(=O)(=O)c2cc(F)cc(F)c2)cc1)c1ccc2nccn2c1`: the IC50 came out at 7 nM.

Tested on in a further data set: not listed separately
Kind of data set: Ratio of drug level in retina to plasma of Sprague-Dawley rat at 30 mg/kg, po qd for 2 days measured 1 hr after last dose in presence of nicotinic acid.
Conditions: not given
For the compound `O=C(NCc1ccc(S(=O)(=O)c2cc(F)cc(F)c2)cc1)c1ccc2nccn2c1`, the Kp at 1 h was 0.32.

Tested on in the next data set: not listed separately
Description: Antiproliferative activity against mouse KPR cells assessed as cell viability after 96 hrs by CyQuant staining-based assay. It is filed as functional.
Conditions: not given
Regarding `O=C(NCc1ccc(S(=O)(=O)c2cc(F)cc(F)c2)cc1)c1ccc2nccn2c1`, the 50% inhibitory concentration (IC50) is 41 nM.

Tested on in another data set: not listed separately
Kind of data set: Ratio of drug level in retina to plasma of Sprague-Dawley rat at 30 mg/kg, po qd for 2 days measured 6.5 hrs after last dose in presence of nicotinic acid.
Conditions: not given
For the compound `O=C(NCc1ccc(S(=O)(=O)c2cc(F)cc(F)c2)cc1)c1ccc2nccn2c1`, the concentration ratio (Kp) at 6.5 h is 0.3.

Tested on in the next data set: not listed separately
Description: Apparent permeability from apical to basolateral side in MDCK cells at 10 uM by LC-MS/MS analysis. It is filed as ADME, cell-based, Canis lupus familiaris. The settings on record: dog.
Take `O=C(NCc1ccc(S(=O)(=O)c2ccc(N3CCOCC3)nc2)cc1)c1cnc2[nH]ncc2c1`: the Papp A→B at 10 µM came out at 0.85 ×10⁻⁶ cm/s.
The same measure, in the same setting: under `CN(C)c1ccc(S(=O)(=O)c2ccc(CNC(=O)c3cnc4[nH]ncc4c3)cc2)cn1` stands 1.5 ×10⁻⁶ cm/s.

Tested on in the next data set: not listed separately
Kind of data set: Antiproliferative activity against human HT1080 cells assessed as cell viability after 96 hrs by CyQuant staining-based assay. It is filed as functional. The conditions noted are these: HT-1080, 96 h.
Turning to `O=C(NCc1ccc(S(=O)(=O)c2cc(F)cc(F)c2)cc1)c1ccc2nccn2c1`, the IC50 is 2 nM.

Another data set deals with PC-3. Kind of data set: Antiproliferative activity against human PC3 cells assessed as cell viability after 96 hrs by CyQuant staining-based assay. Type of data set: functional. The conditions noted are these: PC-3, 96 h.
In the case of `O=C(NCc1ccc(S(=O)(=O)c2cc(F)cc(F)c2)cc1)c1ccc2nccn2c1`, the IC50 is 3 nM.

Tested on in another data set: not listed separately
Kind of data set: Octanol-PBS buffer distribution coefficient, log D of the compound at pH 7.4 by shake flask method. Type of data set: physicochemical.
Conditions: not given
Compound `O=C(NCc1ccc(S(=O)(=O)c2cc(F)cc(F)c2)cc1)c1ccc2nccn2c1` came in with a logD of 3.2.

Tested on in another data set: not listed separately
Description: Drug uptake in Sprague-Dawley rat retina at 30 mg/kg, po qd for 2 days measured 1 hr after last dose in presence of nicotinic acid. Type of data set: ADME, organism-based. The arrangement: dose 30 mg/kg, route oral. The conditions noted are these: read-out: Drug uptake.
On to `O=C(NCc1ccc(S(=O)(=O)c2cc(F)cc(F)c2)cc1)c1ccc2nccn2c1`, for which the concentration at 1 h was 1900 nM.

Tested on in the next data set: not listed separately
Description: Antiproliferative activity against dog D17 cells assessed as cell viability after 96 hrs by CyQuant staining-based assay. Type of data set: functional. The conditions noted are these: Canis lupus familiaris, D17, 96 h.
`O=C(NCc1ccc(S(=O)(=O)c2cc(F)cc(F)c2)cc1)c1ccc2nccn2c1`: the 50% inhibitory concentration (IC50) was 12 nM.

A further data set has as its system A2780. Kind of data set: Antiproliferative activity against human A2780 cells assessed as cell viability after 72 hrs by SRB assay. It is filed as functional, cell-based. The conditions noted are these: A2780, 72 h.
On to `NC1CCN(S(=O)(=O)c2ccc(CNC(=O)c3cnc4[nH]ncc4c3)cc2)CC1`, for which the half-maximal inhibitory concentration (IC50) is 330 nM.
Consider `O=C(NCc1ccc(S(=O)(=O)c2ccc(N3CCOCC3)nc2)cc1)c1cnc2[nH]ncc2c1`, for which the IC50 turned out to be 1.3 nM.
For `CN(C)c1ccc(S(=O)(=O)c2ccc(CNC(=O)c3cnc4[nH]ncc4c3)cc2)cn1`, the half-inhibitory concentration (IC50) was found to be 3.2 nM.
Still for that read-out and setting: the same measure for `O=C(NCc1ccc(S(=O)(=O)c2ccccc2)cc1)c1cnc2[nH]ncc2c1`: 66 nM; for `CC(C)n1cc(S(=O)(=O)c2ccc(CNC(=O)c3cnc4[nH]ncc4c3)cc2)cn1`: 12 nM.
Take `O=C(NCc1ccc(S(=O)(=O)N2CCOCC2)cc1)c1cnc2[nH]ncc2c1`: the half-inhibitory concentration (IC50) came out at 280 nM.

The test system of another data set is A2780. Description: Antiproliferative activity against human A2780 cells assessed as cell viability after 72 hrs by SRB assay in presence of nitotinamide mononucleotide. Type of data set: functional, cell-based.
Conditions: not given
In the case of `NC1CCN(S(=O)(=O)c2ccc(CNC(=O)c3cnc4[nH]ncc4c3)cc2)CC1`, the inhibition result is “inactive”.
Turning to `O=C(NCc1ccc(S(=O)(=O)c2ccc(N3CCOCC3)nc2)cc1)c1cnc2[nH]ncc2c1`, the inhibition entry is “inactive”.
Turning to `CN(C)c1ccc(S(=O)(=O)c2ccc(CNC(=O)c3cnc4[nH]ncc4c3)cc2)cn1`, the inhibition result is “inactive”.
In the case of `O=C(NCc1ccc(S(=O)(=O)c2ccccc2)cc1)c1cnc2[nH]ncc2c1`, the inhibition entry is “inactive”.
Regarding `CC(C)n1cc(S(=O)(=O)c2ccc(CNC(=O)c3cnc4[nH]ncc4c3)cc2)cn1`, the inhibition result was “inactive”.
For `O=C(NCc1ccc(S(=O)(=O)N2CCOCC2)cc1)c1cnc2[nH]ncc2c1`, the inhibition entry was “inactive”.

Tested on in another data set: not listed separately
Kind of data set: Antiproliferative activity against dog DH82 cells assessed as cell viability after 96 hrs by CyQuant staining-based assay. The conditions noted are these: Canis lupus familiaris, DH82, 96 h. It is filed as functional.
`O=C(NCc1ccc(S(=O)(=O)c2cc(F)cc(F)c2)cc1)c1ccc2nccn2c1`: the half-inhibitory concentration (IC50) came out at 7 nM.

Tested on in a further data set: not listed separately
Description: Cellular uptake in mouse KPP cells at 1000 nM. The settings on record: 1 µM. It is filed as ADME, cell-based.
On to `O=C(NCc1ccc(S(=O)(=O)c2cc(F)cc(F)c2)cc1)c1ccc2nccn2c1`, for which the Drug uptake amounted to 31 nM.

Tested on in another data set: not listed separately
Description: Antiproliferative activity against dog A72 cells assessed as cell viability after 96 hrs by CyQuant staining-based assay. It is filed as functional. The settings on record: Canis lupus familiaris, A-72, 96 h.
Turning to `O=C(NCc1ccc(S(=O)(=O)c2cc(F)cc(F)c2)cc1)c1ccc2nccn2c1`, the IC50 is 4 nM.

Tested on in another data set: not listed separately
Kind of data set: Inhibition of C-terminal His-6-tagged cynomolgus monkey NAMPT expressed in Escherichia coli (DE3)-RIL cells after 30 mins by mass spectrometry-based analysis. The arrangement: species or system Macaca fascicularis.
Conditions: not given
With `O=C(NCc1ccc(S(=O)(=O)c2cc(F)cc(F)c2)cc1)c1ccc2nccn2c1`, the IC50 is 42 nM.

Tested on in the next data set: not listed separately
Description: Cytotoxicity against African green monkey COS7 cells assessed as cell viability after 96 hrs by CyQuant staining-based assay. The conditions noted are these: Chlorocebus aethiops, COS-7, 96 h.
Regarding `O=C(NCc1ccc(S(=O)(=O)c2cc(F)cc(F)c2)cc1)c1ccc2nccn2c1`, the IC50 was 9 nM.

Tested on in the next data set: not listed separately
Description: Cytotoxicity against rhesus monkey RF/6A cells assessed as cell viability after 96 hrs by CyQuant staining-based assay. The settings on record: Macaca mulatta.
As to `O=C(NCc1ccc(S(=O)(=O)c2cc(F)cc(F)c2)cc1)c1ccc2nccn2c1`, the half-maximal inhibitory concentration (IC50) amounted to 4 nM.

Tested on in a further data set: not listed separately
Kind of data set: Cellular uptake in mouse KPP cells at 200 nM. Type of data set: ADME, cell-based. The settings on record: 0.2 µM.
Consider `O=C(NCc1ccc(S(=O)(=O)c2cc(F)cc(F)c2)cc1)c1ccc2nccn2c1`, for which the Drug uptake was 8 nM.

The target in the next data set is T1, Nicotinamide phosphoribosyltransferase. Description: Inhibition of NAMPT in mouse cells assessed as reduction in NAD level after 48 hrs by mass spectrometry. It is filed as cell-based.
Conditions: not given
`O=C(NCc1ccc(S(=O)(=O)c2cc(F)cc(F)c2)cc1)c1ccc2nccn2c1`: the EC50 was 1.3 nM.

Tested on in the next data set: not listed separately
Description: Aqueous solubility of the compound in PBS at pH 7.2 by LC/CLND analysis.
Conditions: not given
It is filed as physicochemical.
With `O=C(NCc1ccc(S(=O)(=O)c2ccc(N3CCOCC3)nc2)cc1)c1cnc2[nH]ncc2c1`, the solubility was less than 1 µM.
`CN(C)c1ccc(S(=O)(=O)c2ccc(CNC(=O)c3cnc4[nH]ncc4c3)cc2)cn1` registered a solubility of less than 1 µM.

Tested on in the next data set: not listed separately
Kind of data set: Fraction unbound in mouse plasma at 5 uM by LC-MS/MS analysis. Type of data set: ADME, cell-free.
Conditions: not given
For the compound `O=C(NCc1ccc(S(=O)(=O)c2ccc(N3CCOCC3)nc2)cc1)c1cnc2[nH]ncc2c1`, the fraction unbound at 5 µM is 0.019.
`CN(C)c1ccc(S(=O)(=O)c2ccc(CNC(=O)c3cnc4[nH]ncc4c3)cc2)cn1` registered a fraction unbound at 5 µM of 0.018.

In another data set the target is Nicotinamide phosphoribosyltransferase (Rattus norvegicus, UniProt Q80Z29). Kind of data set: Inhibition of rat NAMPT after 30 mins by mass spectrometry-based analysis.
Sequence of Nicotinamide phosphoribosyltransferase (Rattus norvegicus, UniProt Q80Z29) (Q80Z29 whole entry): as the sequence (Q99KQ4 whole entry) above, with T335S, N439T, I484M counted along it
Conditions: not given
Take `O=C(NCc1ccc(S(=O)(=O)c2cc(F)cc(F)c2)cc1)c1ccc2nccn2c1`: the IC50 came to 23 nM.

Tested on in a further data set: not listed separately
Description: Antiproliferative activity against mouse KPP cells assessed as cell viability after 96 hrs by CyQuant staining-based assay. It is filed as functional.
Conditions: not given
In the case of `O=C(NCc1ccc(S(=O)(=O)c2cc(F)cc(F)c2)cc1)c1ccc2nccn2c1`, the 50% inhibitory concentration (IC50) came to 16 nM.
